Relative viability data for five cell lines are collected here from the supplement of paper PMC10307832.

What all share (assay): relative viability (nuclei count vs DMSO), 5 days (fraction); higher = more cells survive
Compound in assay [1]: CN[C@@H]1C[C@H]2O[C@@](C)([C@@H]1OC)n1c3ccccc3c3c4c(c5c6ccccc6n2c5c31)C(=O)NC4 [Staurosporine] + CC(=O)c1c(C)c2cnc(Nc3ccc(N4CCNCC4)cn3)nc2n(C2CCCC2)c1=O [Palbociclib] (partner 0.5 µM)
In a few lines:
(§1)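 Values are medians from duplicate plates. Each reflects relative viability, defined as the nuclei count of treated wells over that of vehicle wells. Lung cancer cell lines in 1536-well plates were pin-tool dosed one day after seeding with one drug alone or with a fixed anchor-drug dose plus five library-drug doses (not always all listed) in √10 steps, then fixed, stained and imaged at 4× after 5 days.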

Compound in assay [2]: CN[C@@H]1C[C@H]2O[C@@](C)([C@@H]1OC)n1c3ccccc3c3c4c(c5c6ccccc6n2c5c31)C(=O)NC4 [Staurosporine] + COc1cc2c(Oc3ccc(NC(=O)C4(C(=O)Nc5ccc(F)cc5)CC4)cc3F)ccnc2cc1OCCCN1CCOCC1 [Foretinib] (partner 0.25 µM)
The method in brief:
as §1

Compound in the assay “Sulindac + Olaparib”: CC1=C(CC(=O)O)c2cc(F)ccc2/C1=C\c1ccc([S+](C)[O-])cc1 [Sulindac] + O=C(c1cc(Cc2n[nH]c(=O)c3ccccc23)ccc1F)N1CCN(C(=O)C2CC2)CC1 [Olaparib] (partner 8 µM)
The method in brief:
as §1

Compound in assay [3]: O=c1[nH]cc(F)c(=O)[nH]1 [5-Fluorouracil] + Nc1ncn([C@H]2C[C@H](O)[C@@H](CO)O2)c(=O)n1 [Decitabine] (partner 2 µM)
The method in brief: as §1

Regarding H3255, the relative viability in assay [1] (first compound 0.005 µM) was determined as 0.275; in assay [1] (first compound 0.01581 µM), 0.24; in assay [1] (first compound 0.05 µM), 0.24; in assay [1] (first compound 0.1581 µM), 0.181; in assay [1] (first compound 0.5 µM), 0.178; in assay [2] (first compound 0.005 µM), 0.884. Besides, the relative viability in assay [2] (first compound 0.01581 µM) was 0.357; in assay [2] (first compound 0.05 µM), 0.292; in assay [2] (first compound 0.1581 µM), 0.211; in assay [2] (first compound 0.5 µM), 0.183; with Sulindac + Olaparib (first compound 0.08 µM), 0.573; in the assay with Sulindac + Olaparib (first compound 0.253 µM), 0.531. Moreover, the relative viability with Sulindac + Olaparib (first compound 0.8 µM) was 0.501; with Sulindac + Olaparib (first compound 2.53 µM), 0.557; in the assay with Sulindac + Olaparib (first compound 8 µM) it was 0.553; in assay [3] (first compound 0.02 µM), 0.694; in assay [3] (first compound 0.2 µM) it was 0.629; in assay [3] (first compound 0.6325 µM) it was 0.645. The relative viability in assay [3] (first compound 2 µM) was determined as 0.488.
Consider HARA, for which the relative viability in assay [1] (first compound 0.005 µM) worked out at 0.268; in assay [1] (first compound 0.01581 µM) it was 0.236; in assay [1] (first compound 0.05 µM) it was 0.206; in assay [1] (first compound 0.1581 µM) it was 0.177; in assay [1] (first compound 0.5 µM), 0.118; in assay [2] (first compound 0.005 µM), 0.77. For the same cell line, the relative viability in assay [2] (first compound 0.05 µM) was found to be 0.327; in assay [2] (first compound 0.1581 µM), 0.184; in assay [2] (first compound 0.5 µM), 0.258; in the assay with Sulindac + Olaparib (first compound 0.08 µM) it was 0.737; in the assay with Sulindac + Olaparib (first compound 0.253 µM), 0.935; with Sulindac + Olaparib (first compound 0.8 µM) it was 1. For the same cell line, the relative viability with Sulindac + Olaparib (first compound 2.53 µM) was found to be 0.731; in the assay with Sulindac + Olaparib (first compound 8 µM) it was 0.955; in assay [3] (first compound 0.02 µM), 0.519; in assay [3] (first compound 0.2 µM), 0.533; in assay [3] (first compound 0.6325 µM) it was 0.605; in assay [3] (first compound 2 µM), 0.488.
For HCC-15, the relative viability came out at 0.527 in assay [1] (first compound 0.005 µM); 0.503 in assay [1] (first compound 0.05 µM); 0.275 in assay [1] (first compound 0.1581 µM); 0.229 in assay [1] (first compound 0.5 µM); 0.975 in assay [2] (first compound 0.005 µM); 0.483 in assay [2] (first compound 0.05 µM). In addition, the relative viability in assay [2] (first compound 0.1581 µM) is 0.13; in assay [2] (first compound 0.5 µM), 0.107; with Sulindac + Olaparib (first compound 0.08 µM), 0.747; in the assay with Sulindac + Olaparib (first compound 0.253 µM), 0.763; in the assay with Sulindac + Olaparib (first compound 0.8 µM), 0.68; with Sulindac + Olaparib (first compound 2.53 µM), 0.702. In addition, the relative viability with Sulindac + Olaparib (first compound 8 µM) came out at 0.765; in assay [3] (first compound 0.02 µM), 0.751; in assay [3] (first compound 0.2 µM), 0.711; in assay [3] (first compound 0.6325 µM) it was 0.63; in assay [3] (first compound 2 µM), 0.476.
With HCC-44, the relative viability in assay [1] (first compound 0.05 µM) was determined as 0.768; in assay [1] (first compound 0.1581 µM), 0.53; in assay [1] (first compound 0.5 µM), 0.41; in the assay with Sulindac + Olaparib (first compound 0.08 µM), 0.983; with Sulindac + Olaparib (first compound 0.253 µM) it was 1.05; in the assay with Sulindac + Olaparib (first compound 0.8 µM), 0.773. The relative viability came out at 0.933 with Sulindac + Olaparib (first compound 2.53 µM); 1.01 with Sulindac + Olaparib (first compound 8 µM); 1.07 in assay [3] (first compound 0.02 µM); 0.96 in assay [3] (first compound 0.2 µM); 0.94 in assay [3] (first compound 0.6325 µM); 0.77 in assay [3] (first compound 2 µM).
Consider HCC-78, for which the relative viability was found to be 0.502 in assay [1] (first compound 0.005 µM); 0.469 in assay [1] (first compound 0.01581 µM); 0.462 in assay [1] (first compound 0.05 µM); 0.472 in assay [1] (first compound 0.1581 µM); 0.464 in assay [1] (first compound 0.5 µM); 0.537 in assay [2] (first compound 0.005 µM). Also, the relative viability in assay [2] (first compound 0.01581 µM) was 0.459; in assay [2] (first compound 0.05 µM) it was 0.429; in assay [2] (first compound 0.1581 µM), 0.486; with Sulindac + Olaparib (first compound 0.08 µM), 0.972; with Sulindac + Olaparib (first compound 0.253 µM), 0.812; with Sulindac + Olaparib (first compound 0.8 µM), 0.763. In addition, the relative viability was determined as 0.784 with Sulindac + Olaparib (first compound 2.53 µM); 0.686 with Sulindac + Olaparib (first compound 8 µM); 0.711 in assay [3] (first compound 0.02 µM); 0.726 in assay [3] (first compound 0.2 µM); 0.427 in assay [3] (first compound 0.6325 µM); 0.327 in assay [3] (first compound 2 µM).
